Assay results published in US6906205B2, “Spiro and dispiro 1,2,4-trioxolane antimalarials” (Medicines for Malaria Venture MMV, priority 2002, dated 2005).
Values after ≈ are worked out from the molar mass of the structure shown.

How the values were obtained:
[1] = test system: P. falciparum K1 strain (Thailand resistant to chloroquine); assay: semiautomated microdilution assay, [3H]-hypoxanthine incorporation, K1 strain; type: cell-based, Plasmodium falciparum; settings: K1 strain, 72 h incubation
How it was run: (§1)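 Compounds were tested against intraerythrocytic parasites taken from asynchronous stock cultures, using semiautomated microdilution. IC50 values were estimated by logit regression analysis.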

[2] = test system: P. falciparum NF54 strain (sensitive to standard antimalarials); assay: semiautomated microdilution assay, [3H]-hypoxanthine incorporation, NF54 strain; type: cell-based, Plasmodium falciparum; settings: NF54 strain, 72 h incubation
How it was run: as §1

[3] = test system: ANKA strain of P. berghei; assay: single dose STI in vivo screen in infected mice; parameters: species or system Plasmodium berghei; settings: for Activity (%) po / Activity (%) sc / Activity (%) SSVpo: percent reduction in parasitemia day 3 post-infection, mice; for Activity (%) po / Survival (days) po: single 10 mg/kg po in 3% ethanol and 7% Tween 80; for Activity (%) sc / Survival (days) sc: single 10 mg/kg sc in 3% ethanol and 7% Tween 80; for Survival (days) po / Survival (days) sc / Survival (days) SSVpo: untreated control 5.6 ± 0.3; for Activity (%) SSVpo: single po dose in standard suspending vehicle (SSV); for Survival (days) SSVpo: single po dose in SSV
How it was run: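 Groups of 3-5 Moro SPF or NMRI mice infected with the ANKA strain of P. berghei received a single dose of trioxolane on day one post-infection. The compound was given in 3% ethanol and 7% Tween 80 or in SSV (0.5% w/v CMC, 0.5% v/v benzyl alcohol, 0.4% v/v Tween 80, 0.9% w/v sodium chloride in water). Antimalarial activity was scored as percent reduction in parasitemia on day three and as survival time versus untreated controls. Survival to day 30 counted as cure.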

[4] = test system: Schistosoma mansoni 21-day-old schistosomules; assay: effect on 21-day-old schistosomules in mice; type: in vivo; settings: single 200 mg/kg per os, female mice
Description: All groups were killed 4 weeks after treatment and the liver and intestine were removed and separated. The liver and intestine were compressed and alive male and female worms could be seen and counted. The effect of the compounds was evaluated by mean total and female worm burden.

[5] = test system: Schistosoma mansoni adult schistosomes (49-day-old); assay: effect on adult schistosomes (49-day-old) in mice; type: in vivo; settings: for % reduction of adult worms growth at day 49 after per os application of 400 mg/kg, TWR (%) / adult worms at day 49, per os 400 mg/kg, DEAD WORM (%): single 400 mg/kg per os
Description: Mice were infected with 100 Schistosoma mansoni cercariae […]. Each group was treated per os with OZ compounds at single doses of 200, 400, and 600 mg/kg. […] All groups were killed 4 weeks after treatment and the liver and intestine were removed and separated. The liver and intestine were compressed and alive male and female worms could be seen and counted.

Structure (SMILES) | IC50 (ng/ml) K1 [1] | IC50 (ng/ml) NF54 [2] | Activity (%) po [3] | Activity (%) sc [3] | Survival (days) po [3] | Survival (days) sc [3] | % reduction of schistosomule growth at day 21 after per os application of 200 mg/kg, FWR (%) [4] [%] | % reduction of schistosomule growth at day 21 after per os application of 200 mg/kg, TWR (%) [4] [%] | % reduction of adult worms growth at day 49 after per os application of 400 mg/kg, TWR (%) [5] | adult worms at day 49, per os 400 mg/kg, DEAD WORM (%) [5] | % reduction of adult worms growth at day 49 after per os application of 600 mg/kg, TWR (%) ([5]; single 600 mg/kg per os) | adult worms at day 49, per os 600 mg/kg, DEAD WORM (%) ([5]; single 600 mg/kg per os) | Activity (%) SSVpo [3] [%] | Survival (days) SSVpo [3] [days] | Activity (%) po ([3]; 10 mg/kg) [%] | Survival (days) po ([3]; 10 mg/kg) [days] | Survival (days) sc ([3]; 10 mg/kg) [days]
C1C2CC3CC1CC(C2)C31OOC2(O1)C1CC3CC(C1)CC2C3 (stereo not shown) [OZ04] | >100/>100 ng/ml | >100/>100 ng/ml | 0/NA/0^1% | 0/NA/0^1% | 5.3/NA/5.3^1 days | 5.3/NA/5.3^1 days | 7 | 7 | 0/0% | 0/0% |  |  |  |  |  |  | 
C1COC2(CCC3(CC2)OOC2(O3)C3CC4CC(C3)CC2C4)O1 (stereo not shown) [OZ10] | 0.40 ng/mL (≈ 0.00124 µM) | 0.67 ng/mL (≈ 0.00208 µM) | 99.6% | 99.98% | 8.9 days | 10.5 days | 73 | 66 | 28% | 13% | 21 | 23% |  |  |  |  | 
O=C1CC2CC3(CC2C1)OOC1(O3)C2CC3CC(C2)CC1C3 (stereo not shown) [OZ12] |  |  | 75% | 99.8% | 7.0 days | 9.3 days | 79 | 78 | 14% | 0% |  |  |  |  |  |  | 
O=C1C2C3CC4C5C3C1C5C1(OOC3(O1)C1CC5CC(C1)CC3C5)C42 (stereo not shown) [OZ14] | 91 ng/mL (≈ 0.267 µM) | > 100 ng/mL | 23% | 96% | 6.0 days | 7.7 days | 0 | 7 | 0/0% | 0/0% |  |  |  |  |  |  | 
CON=C1CCC2(CC1)OOC1(O2)C2CC3CC(C2)CC1C3 (stereo not shown) [OZ15] | 0.60 ng/mL (≈ 0.00195 µM) | 1.0 ng/mL (≈ 0.00325 µM) | 99.8% | 99.9% | 7.4 days | 8.2 days | 70 | 63 | 0% | 10% |  |  | 88 | 6.8 |  |  | 
CC(C)(C)C1CCC2(CC1)OOC1(O2)C2CC3CC(C2)CC1C3 (stereo not shown) [OZ18] | 63 ng/mL (≈ 0.197 µM) | 84 ng/mL (≈ 0.262 µM) | 0/NA/0% | 0/NA/0% | 5.0 days | 5.3 days | 9 | 12 | 0/0% | 0/0% |  |  |  |  |  |  | 
C1CCCCCC2(CCCCC1)OOC1(O2)C2CC3CC(C2)CC1C3 (stereo not shown) [OZ20] | 15 ng/mL (≈ 0.043 µM) | 20 ng/mL (≈ 0.0574 µM) |  |  |  |  | 0 | 0 | 0/0% | 0/0% |  |  |  |  |  |  | 
O=C1CCC2(CC1)OOC1(CCCCCCCCCCC1)O2 [OZ21] | 14 ng/mL (≈ 0.0451 µM) | 25 ng/mL (≈ 0.0805 µM) | 0/NA/0% | 0/NA/0% | 5.0 days | 6.0 days | 20 | 18 | 0/0% | 0/0% |  |  |  |  |  |  | 
c1ccc2c(c1)COC1(CCC3(CC1)OOC1(O3)C3CC4CC(C3)CC1C4)OC2 (stereo not shown) [OZ31] |  |  | 99.95% | 99.95% | 9.0 days | 17.7 days | 63 | 60 | 4/4% | 4/4% |  |  | 90 | 7.3 |  |  | 
NC[C@H]1CC[C@]2(CC1)OOC1(O2)C2CC3CC(C2)CC1C3 (stereo partly shown) [OZ163] | 0.2/0.2 ng/ml | 0.2/0.2 ng/ml |  | 100% |  |  | 80 |  |  |  |  |  | 99.94 | 9.0 | 99.90 | 8.0 | 9.7
C1C2CC3CC1CC(C2)C31OOC2(CCC3(CC2)OOC2(O3)C3CC4CC(C3)CC2C4)O1 (stereo not shown) [OZ169] | 15 ng/mL (≈ 0.0337 µM) | > 10 ng/mL | 98% | 99.76% | 7.7 days | 9.0 days | 0 | 0 |  |  |  |  | 22 | 6.7 |  |  | 
NCCOc1ccc([C@H]2CC[C@]3(CC2)OO[C@]2(O3)C3CC4CC(C3)CC2C4)cc1 [OZ323] | 0.85 ng/mL (≈ 0.00213 µM) | 1.1 ng/mL (≈ 0.00275 µM) |  |  |  |  | 97 | 95 | 20% | 23% |  |  |  |  |  |  | 
O=C(C1CCCCC1)N1CC(=O)N2CCc3ccccc3C2C1 (stereo not shown) [PRAZIQUANTEL, praziquantel, reference compound] |  |  |  |  |  |  | 0 | 0 | 96/96% | 96/96% |  | 100/100% |  |  |  |  | 
